Source: patent US5874461A, “Use of Nebivolol as an anti-atherogenic” (priority 1995, dated 1999)
Like-named read-outs stand apart in the source and are kept apart here.

Tests used:
C6 glioma cells [1] = assay: Protection of C6 glioma cells from glutathione depletion-mediated oxidative stress (toxicity, LDH assay); format: cell-based
Source text: (§1) Competitive inhibition by glutamate of cystine uptake in certain cells leads to glutathione depletion and oxidative stress. This oxidative stress model has been described for glial C6 glioma cells (Kato et al., 1992. A mechanism for glutamate toxicity in the C6 glioma cells involving inhibition of cystine uptake leading to glutathione depletion. Neurosci. 48:903-914) and for the neuronal cell line N18RE105 (Murphy et al., 1989. Glutamate toxicity in a neuronal cell line involves inhibition of cystine transport leading to oxidative stress. Neuron 2:1547-1558).
(§2) Cell culture: The C6 glioma cell line (American Type Culture Collection, CCL 107) was cultivated in DMEM supplemented with 2 or 4 mM glutamine, 1 mM pyruvate and 5 or 10% heat-inactivated foetal calf serum. Cultures were maintained at 37° C. in an air/5~10% CO2, water saturated atmosphere.
(§3) Glutathione depletion and evaluation of drugs as antioxidants: Experiments were carried out with cultures plated at 30,000~50,000 cells/cm^2 in 24-well culture plates (for toxicity and lipid peroxide measurements) or at 136,000 cells/cm^2 in 96-well culture plates (for GSH determination). After 8-24 hr, the cultures were switched to culture medium in the absence or presence of the cystine uptake inhibitor glutamate at a final concentration of 10 mM. In order to test drugs for inhibition of oxidative stress, the drug was added together with glutamate (final concentration of solvent was 0.01% hydroxypropyl-β-cylodextrin, 0.1% DMSO). Intracellular glutathione levels were measured after 6~8 hr, lipid peroxides were measured after 14~20 hr, and toxicity and protection were analysed after 48 hr using an LDH assay according to the method of Bergmeyer and Bernt (UV-assay with pyruvate and NADH. In: Methods of Enzymatic Analysis. 1974. H. U. Bergmeyer, ed. Acad. Press, New York, 2nd Ed., pp 574-579).

human LDL = assay: In vitro oxidation of human LDL (Cu-induced conjugated diene formation at 234 nm); format: biochemical
Method: In vitro oxidation of human LDL Human venous blood was collected on EDTA (2.68 mM final concentration). Plasma was isolated by centrifugation. NaBr (37.3 mg/ml) was added and solubulized (final density 1.036 g/ml). Centrifuge tubes were first filled to a level corresponding to 2/3 of their maximal volume, further filled with a NaBr solution of 1.036 g/ml and then centrifuged for 18 hours at 45000 rpm in a 50 Ti rotor (Beckmann). After centrifugation, floating lipoproteins were discarded. The remaining solution was adjusted to a density of 1.055 g/ml. Filling of the centrifuge tubes and centrifugation were repeated as described above. After centrifugation, floating LDL was dialysed against a buffer containing 127 mM NaCl, 8 mM Na2 HPO4.2H2 O, 2.7 mM KCl and 1.47 mM KH2 PO4 at pH 7.4. After dialysis, LDL was filtered though a Millipore filter (0.45 μM) and protein content was determined. A dilution of 25 μg/ml was prepared with a millipored dialysis buffer. Oxidation was determined in a Pharmacia Ultraspec III spectrophotometer. Conjugated diene formation was registered at 234 nm. Two μl of a drug or solvent (DMSO) were added to Eppendorf tubes followed by 1 ml of LDL (25 μg/ml) and these substances were gently mixed and centrifuged for 1 min at 13000 g. The solution was pipetted in a Quartz cuvet that was thermostatised in the spectrophotometer at 37° C. After equilibration, the oxidation reaction was started by the addition of CuSO4 (final concentration 10 μM). Absorbance was measured every 3 minutes during the time course of the experiment. The absorbance at 234 nm was divided into three phases: a lag phase, a propagation phase and a decomposition phase (FIG. 1). The lag phase was defined as the intercept with the baseline of the tangent of the slope of the absorbance curve of the propagation phase. The rate of oxidation was defined as the tangent of the slope. Tmax was defined as the time required to attain the maximum absorbance between the propagation and the decomposition phase. The absorbance at tmax minus the absorbance at to was taken as an indicator of the total amount of dienes formed. To verify the reproducibility of the assay, a reference LDL sample was prepared and kept in darkness under nitrogen at 4° C. This reference sample was included in every oxidation experiment. LDL was isolated from 23 subjects. Plasma cholesterol ranged from 156 to 278 mg/dl (mean 213 mg/dl), triglycerides ranged from 47 to 328 mg/dl (mean 191 mg/dl) and phospholipids ranged from 178 to 327 mg/dl (mean 231 mg/dl).

[2] = system: primary embryonic hippocampal cultures; assay: In vitro neuroprotection against nitric oxide and superoxide radicals (inhibition of LDH release); format: cell-based, rats; conditions: for inhibition at 1 µM / inhibition at 0.1 µM: Rattus norvegicus, read-out: % neuroprotection, mean ± SD; for inhibition at 1 µM: 10^-6 M; for inhibition at 0.1 µM: 10^-7 M
Method: Primary embryonic hippocampal cultures were prepared essentially as described previously (Pauwels et al., Van Aschouw, H. P., Peeters, L., Moeremans, M., Leysen, J. E. (1992) Chronic treatment with sabeluzole protects cultured rat brain neurons from the neurotoxic effects of excitatory amino acids. Synapse, 12:271-280). Hippocampal formations of rats at embryonic day 17 were dissected and dissociated in 0.05% trypsin, 0.1 mg/ml DNase I in DMEM (Dulbecco Modified Eagle Medium). Heat-inactivated horse serum (HS) was added to a concentration of 4%, and the cells were centrifuged, washed with DMEM, and resuspended in DMEM/Ham's F12 (3:1) containing 10% HS. The cells were plated at a density of 4×10^5 cells/cm^2 in poly L-lysine (0.001%) precoated multiwell-24 plates. On day 1 in culture, the medium was changed to chemically defined CDM-R12 medium (DMEM-HEPES/Ham's F12 (3:1) containing 0.26% bovine serum albumin, 30 nM sodium selenite, 3 nM 3,3',5 triiodo-L-thyronine, 0.35 μM retinol, 0.3 μM retinol acetate, 2.3 μM DL-a-tocopherol, 2.1 μM DL-a-tocopherol acetate, 3.6 μM linolenic acid, 3.6 μM linoleic acid, 0.125% human transferrin, […], 57.7 nM corticosterone, 49 U/I insulin, 0.4 μM biotin, 10 μM L-carnitine, 83 μM D(+)-galactose, 3.3 μM glutathione, 10 μM ethanolamine, 0.1 mM putrescine; Romijn, H. J., van Huizen, F., Wolters, P. S. (1984) Towards an improved serum-free, chemically defined medium for long-term culturing of cerebral cortex tissue. Neurosci. Behav. Rev., 8:301-334). Acute and prolonged pretreatment of the, cultures was essentially as described previously (Pauwels et al., 1992). Drugs were dissolved, and diluted in 10% or 1% hydroxypropyl-β-cyclodextrin such that the final concentrations of the solvent in the acute and chronic exposures were 0.1% and 0.01% respectively. Compound A as used in the following examples is [(RRSR)+(RRRS)+(SSSR) +(SSRS)]-α-[[[2-(chroman-2-yl)-2-hydroxy-ethyl]amino]methyl]-6-hydroxy-2-chromanmethanol ethanedioate (1:1).
For acute treatment, drug, or solvent was added to the cultures on day 7. After 20 min the medium was replaced with 200 μl chemically defined DMEM medium (the same composition of CDM-R12 medium but without Ham's F12) (control), or chemically defined DMEM medium containing the oxidative stress trigger. Oxidative stress triggers used were 1 mM sodium nitroprusside (SNP, a nitric oxide radical generating compound), or 7.5-10 mM diethyldithiocarbamate (DDTC, a superoxide dismutase inhibitor) and the test compound.
For prolonged pretreatment experiments, drug (concentration range 0.1 nM-10 μM) was added to the serum-free medium on days 1 and 4 of the culture. On day 7, the cultures were washed once with DMEM, and incubated with 0.2 ml chemically defined DMEM medium for 2 h at 37° C. The cells were washed and the medium was replaced by 0.2 ml chemically defined DMEM medium (control), or chemically defined DMEM medium containing the oxidative stress trigger (se above).
For both the acute experiment and the prolonged pretreatment experiment, extracellular and intracellular LDH (lactate dehydrogenase) activities were measured spectrophotometrically at 340 nm with an EPOS Analyzer 5060, according to the method of Bergmeyer (Bergmeyer, H. U. (1974) Biochemical reagents. In: Methods of Enzymatic Analysis. H. U. Bergmeyer, eds. Academic Press, New York, 2nd Ed., pp. […]). Extracellular LDH activity in the culture medium and cytoplasmic LDH activity measured after lysis of the cells in 1 ml H2 O, were used to calculate total LDH activity and % released LDH. % Neuroprotection refers to % inhibition of LDH release, where oxidative stress trigger-induced LDH release is defined as 0% protection, and basal (control) level of LDH release is defined as 100% protection.
Neuronal primary hippocampal cultures were grown in CDM-R12 medium for 7 days. Test compounds were either administered on days 1 and 4 of culture (prolonged pretreatment) or on day 7 of culture (acute treament). […]

C6 glioma cells [3] = assay: GSH content in C6 glioma cultures after glutamate; format: cell-based
Source text: as §1, §2, §3
Determination of GSH content in C6 glioma cultures: GSH levels were analysed by a micromethod, essentially as described by Vandeputte et al. (A microtiterplate assay for total glutathione and glutathione disulfide contents in cultured/isolated cells: performance study of a new miniaturised protocol. 1994. Cell Biol. Toxicol. 10:415-421), with a modification in the washing and homogenisation procedures. Cells (in 96-well plates) were washed with PBS, were homogenised in 50 μl 10 mM HCl containing 1.3% 5-sulfosalicylic acid, and the homogenate was centrifuged at 1200×g for 10 min at 4° C. Forty μl of the supernatant was transferred to a well of a 96-well plate and 200 μl reagent (1 mM 5,5'-dithiobis-(2-nitrobenzoic acid), 0.34 mM NADPH and 6.3 mM EDTA in 143 mM phosphate buffer pH 7.4) was added. After 5 min equilibration to room temperature the reaction was started by adding 40 μl glutathione reductase (8.5 IU/ml 143 mM phosphate buffer, 6.3 mM EDTA pH 7.4). NADPH oxidation was followed at 414 nm for 5 minutes with a Multiskan MCC/340 (Labsystems), and the change in absorbance (DA) per min was calculated. The glutathione content was deduced from a standard curve ranging from 0.2 to 2 nmol commercial GSH per test (DA/min plotted versus concentration).

C6 glioma cells [4] = assay: Fluorescence measurement of intracellular peroxides in C6 glioma cells after glutamate; format: cell-based
Source text: as §1, §2, §3
Fluorescence measurement of intracellular peroxides: Formation of intracellular peroxides was detected using 6-carboxy-2',7'-dichlorodihydrofluorescin diacetate, di(acetoxymethyl ester) (C-DCDHF, Molecular Probes). C-DCDHF was dissolved in DMSO at a concentration of 10 mM and stored at -70° C. under nitrogen. After exposure of the culture to the glutathione depleting agents, the cells were loaded with 10 μM C-DCDHF for one hour at 37° C. Medium was aspirated off, PBS was added to the cells, and plates were read in a Cytofluor II microplate reader (PerSeptive Biosystems). Excitation and emission wavelength were selected with a 485/530 nm filter pair. The results were expressed in relative fluorescence units/μg protein.

[5] = DDTC trigger, prolonged pretreatment
[6] = SNP trigger, prolonged pretreatment
[7] = glutamate 10 mM, without or with compound 1 μM

SMILES: C[C@]12N[C@H](Cc3ccccc31)c1ccccc12 [MK801, reference compound]
- cytoplasmic LDH release (glutamate toxicity) (C6 glioma cells [1]; data not shown): not prevented

SMILES: Oc1ccc2c(c1)CCC(C(O)CNCC(O)C1CCc3ccccc3O1)O2 (stereo not drawn) [[(RSSS)+(RSRR)+(SRSS)+(SRRR)]-α-[[[2-(chroman-2-yl)-2-hydroxyethyl]amino]-methyl]-6-hydroxy-2-chroman-methanol ethanedioate (1:1)]
- Tmax (human LDL; 2 μM, FIG. 2): increased
- lag time (human LDL; 2 μM, FIG. 2): increased
- rate of oxidation (human LDL; 2 μM, FIG. 2): decreased

SMILES: Oc1ccc2c(c1)CCC(C(O)CNCC(O)C1CCc3cc(O)ccc3O1)O2 (stereo not drawn) [[(SRSR)+(SRRS)+(RSSR)] -α,α'-iminobis(methylene)bis[6-hydroxy-2-chromanmethanol]]
- Tmax (human LDL; 2 μM, FIG. 2): increased
- lag time (human LDL; 2 μM, FIG. 2): increased
- rate of oxidation (human LDL; 2 μM, FIG. 2): decreased

SMILES: COc1ccccc1OCCNCC(O)COc1cccc2[nH]c3ccccc3c12 (stereo not drawn) [carvedilol, reference compound]
- inhibition at 1 µM ([2]; DDTC trigger, acute treatment): < 25%
- inhibition at 0.1 µM ([2]; DDTC trigger, acute treatment): < 25%
- inhibition at 1 µM [2, 5]: < 25%
- inhibition at 0.1 µM [2, 5]: < 25%
- inhibition at 1 µM ([2]; SNP trigger, acute treatment): < 25%
- inhibition at 0.1 µM ([2]; SNP trigger, acute treatment): < 25%
- inhibition at 1 µM [2, 6]: < 25%
- inhibition at 0.1 µM [2, 6]: < 25%
- neuroprotection against DDTC or SNP ([2]; one or the other treatment paradigm): not observed

SMILES: N[C@@H](CCC(=O)O)C(=O)O [glutamate, reference compound]
- intracellular glutathione levels (C6 glioma cells [3]; 10 mM glutamate, 6 hr or more): sharp reduction in intracellular glutathione levels
- GSH content (C6 glioma cells [3]; [7]): 296 ± 26 pmol/well
- cytotoxicity at 10000 µM (C6 glioma cells [1]; Rattus norvegicus, C6 glioma, 48 h, read-out: LDH release, % of total LDH): 93.2 ± 1.3%
- increase in toxic intracellular peroxides (C6 glioma cells [4]; 10 mM glutamate): ~6 fold
- Intracellular peroxides (mean ± SD, n) (C6 glioma cells [4]; [7]): 525 ± 57 Relative fluorescence units/μg

SMILES: Cc1c(C)c2c(c(C)c1O)CCC(C)(CCCC(C)CCCC(C)CCCC(C)C)O2 (stereo not drawn) [vitamin E, α-tocopherol, reference compound]
- Tmax (human LDL; 20 μM vitamin E, compared with 2 μM hydroxymetabolites of nebivolol): close to the tmax for the 2 μM hydroxymetabolites of nebivolol
- anti-oxidant effect (human LDL; concentration lower than 10 μM (results not shown)): did not show any anti-oxidant effect
- antioxidative effect on human LDL (human LDL; in vitro): delay the oxidation of LDL
- initial absorbance (human LDL; vitamin E): not affected
- rate of oxidation (human LDL; vitamin E): not affected
- total amount dienes (human LDL; vitamin E): not affected
